Source: article PMC12799219, “In vitro and in vivo studies on the activity and selectivity of butoconazole in experimental infection by Trypanosoma cruzi” (Memórias do Instituto Oswaldo Cruz, 2026)
“Also recorded” adds a separate entry of the source. Read-outs that look alike come from different tables or passages of the source.

What was measured:
[1] = system: T. cruzi bloodstream trypomastigotes (Y strain); test: Mouse model of acute T. cruzi infection: parasitaemia and mortality; assay type: in vivo, Swiss male mice; conditions: for mortality (cumulative death) / parasitaemia peak decline at the 8 dpi: assay 1: BZ 25 mg/kg/day p.o., BTZ 45.61 mg/kg/day i.p.; for mortality (cumulative death) / parasitaemia reduction: five days; for parasitaemia peak decline at the 8 dpi: five days from 5 dpi; for animal mortality: assay 2, lower doses: BZ 10 mg/kg/day p.o.
Description: In vivo analysis in a mouse model of acute T. cruzi infection - Swiss male mice (18 - 20 g) were obtained from the Institute of Sciences and Technologies in Biomodels (ICTB-FIOCRUZ), housed with a maximum of 5 animals per cage and kept in a specific pathogen-free (SPF) room at 20 - 24 °C under a 12 h light/dark cycle. All animals received sterilised water and food ad libitum. The animals were acclimatised for seven days before the experiments. For a proof-of-concept study, animals were infected by i.p (1x10^4) with bloodstream trypomastigotes (Y strain). The drugs administration started at the onset of parasitaemia (5th day dpi), only using mice with detectable parasitaemia.[19] ^, [28] Control mice groups were age-matched and housed under identical conditions. The following experimental groups were used ≥ 3 mice per group: untreated (infected vehicle-treated control) and treated orally (p.o) with BZ (10, 25 and 100 mg/kg/day), corresponding to suboptimal and optimal doses of the reference drug; infected and treated with BTZ (i.p) using concentrations adjusted to be equimolar to BZ doses (18.24, 45.61 and 182.44 mg/kg/day). Also, the following combo was administered: BZ (10 mg/kg/day/p.o) + BTZ (18.24 mg/kg/day/i.p). The animals received the drugs once a day for five consecutive days. A […] optimal dose of BZ (10 mg/kg/day) was chosen to clearly observe any benefit of its association with BTZ. The i.p. route for BTZ was chosen due to its low aqueous solubility.
Parasitaemia and mortality rate - Parasitaemia was performed by collecting 5 μL of the blood from the tail’s vein, disposing it on a slide and covering with coverslips (18 x 18 mm) for direct counting of parasites observed in 50 fields under light microscope (40X magnification).[19] ^, [28] The mortality was followed daily up to 30 days after the end of treatment and expressed as a percentage of cumulative mortality (% CM).[19] ^, [27] In vivo assays were conducted with n = 5 per group.

in vitro = assay type: cell-based; conditions: rat, Toxicity on H9C2 mammalian cells LC50
Description: (§1) Mammalian cell cultures - L929 fibroblast lineage were cultured in Roswell Park Memorial Institute 1640 medium without phenol red (RPMI - Sigma-Aldrich, St. Louis, MO, USA), supplemented with 10% foetal bovine serum (FBS - Cultilab - SP - Brazil) and 2 mM glutamine (Sigma-Aldrich, St. Louis, MO, USA) with pH 7.2 - 7.4, as previously reported.[21] H9C2, cardiomyoblast cultures, were maintained in Dulbecco’s Modified Eagle’s Medium (DMEM) high glucose (4500 mg/L) medium supplemented (Sigma-Aldrich, St. Louis, MO, USA) with 10% FBS (Cultilab - SP -Brazil), 2 mM glutamine (Sigma-Aldrich, St. Louis, MO, USA) and 100 μg/mL penicillin/streptomycin (Sigma-Aldrich, St. Louis, MO, USA).[22] Both cell cultures maintained at 37 °C under an atmosphere of 5% CO2, with weekly dissociation protocol using 0.01% trypsin.
(§2) Cytotoxicity assay - The toxicity of the compounds was evaluated on two mammalian cell lines (L929 and H9C2), as reported.[21] The cells were seeded in 96-well plates (4 x 10^3 cells/well - for L929; 25x10^3 cells/well - for H9C2) and incubated at 37 °C and 5% CO2. The L929 cultures were kept under treatment for 96 and 168 h with a serial dilution (1:2) of the compounds (up to 400 μM). After the treatment periods, the AlamarBlue® reagent (Thermo Fisher Scientific Inc) was added and incubated for 24 h. The H9C2 cultures were also treated in serial dilution up to 200 μM for 24 h. PrestoBlue® reagent (Thermo Fisher Scientific Inc) was added to the cultures and incubated for 3 h. All plates were analysed in the spectrophotometer SpectraMaxM3 (570 and 600 nm) and LC50 values (concentration capable of inducing loss of viability in 50% of the cells) determined.[21] All assays were done at least twice, in triplicates.

H9C2 mammalian cells = test: cells; assay type: cell-based; conditions: for EC50: Rattus norvegicus, H9c2, 24 h, read-out: Toxicity on H9C2 mammalian cells pEC50 (converted)
Description: as §1, §2

[2] = system: T. cruzi intracellular forms (Tulahuen strain); test: In vitro activity on intracellular forms of T. cruzi in L929 cells (β-galactosidase/CPRG); assay type: cell-based, Trypanosoma cruzi; conditions: for EC90: read-out: Activity against T. cruzi intracellular forms EC90
Description: In vitro activity on intracellular forms of T. cruzi - L929 cells previously seeded in 96-well plates (4 x 10^3 cells/well) were infected (ratio of 10 parasites:1 host cell) for 2 h with trypomastigote forms (Tulahuen strain transfected with the β-galactosidase gene, DTU VI).

[3] = system: T. cruzi intracellular forms (Tulahuen strain) in L929 cell lines; test: Drug combination (fixed-ratio, FICI) on intracellular forms of T. cruzi; assay type: cell-based, Trypanosoma cruzi; set-up: Drug concentration (EC50 in fixed-ratio series): unit not given here
Description: Drug combination on intracellular forms of T. cruzi - L929 were seeded in 96-well plates (4 x 10^3 cells/well) and infected with T. cruzi (Tulahuen strain). Predetermined EC50 values were used to determine the top concentrations of the test compounds under fixed ratios ensuring that EC50 fell in the midpoint of a seven-point two-fold dilution series. The fixed ratios were 5:0, 4:1, 3:2, 2:3, 1:4 and 0:5.[24] ^, [25] According to Odds (2003), the Fractional Inhibitory Concentration Indexes (FICI) was calculated by the ratio of the EC50 values of each ratio of the combinations/EC50 of each compound alone. Finally, the sum of the FICIs (ƩFICI) is calculated to classify the interaction nature of the combinations.[26] ΣFICI ≤ 0.5 = Synergism; ΣFICI between 0.5 and 4 = additive (No interaction); ΣFICI > 4 = antagonism. At least two independent experiments were performed in triplicate.

[4] = assay 2, higher doses: BZ 100 mg/kg/day p.o., BTZ 182.44 mg/kg/day i.p.
[5] = assay 2, lowest doses: BZ 10 mg/kg/day p.o., BTZ 18.24 mg/kg/day i.p.
[6] = Trypanosoma cruzi, TULAHUEN, L929, 96 h, read-out: Activity against T. cruzi intracellular forms EC50, Tulahuen strain in L929, 96 h

Structure (SMILES)	mortality (cumulative death) [1]	parasitaemia peak decline at the 8 dpi [1]	animal survival [1, 4]	parasitaemia reduction [1, 4]	animal mortality ([1]; BTZ 18.24 mg/kg/day i.p.)	parasitaemia reduction [1, 5]	CC50 at 24 h (in vitro)	EC50 (H9C2 mammalian cells)	EC50 [2, 6]	FICI ([3]; proportion BTZ:BZ 0:5)	Drug concentration (EC50 in fixed-ratio series) ([3]; proportion BTZ:BZ 1:4)	FICI ([3]; proportion BTZ:BZ 1:4)	Drug concentration (EC50 in fixed-ratio series) ([3]; proportion BTZ:BZ 2:3)	FICI ([3]; proportion BTZ:BZ 2:3)	Drug concentration (EC50 in fixed-ratio series) ([3]; proportion BTZ:BZ 3:2)	FICI ([3]; proportion BTZ:BZ 3:2)	Drug concentration (EC50 in fixed-ratio series) ([3]; proportion BTZ:BZ 4:1)	FICI ([3]; proportion BTZ:BZ 4:1)	FICI ([3]; proportion BTZ:BZ 5:0)	also measured
Clc1ccc(CCC(Cn2ccnc2)Sc2c(Cl)cccc2Cl)cc1 (stereo not shown) [BTZ, butoconazole]	40%	50%	100%	63%	75%	only slightly	36 ± 0.25 µM	37.2 µM	0.075 µM	0	0.008	0.26	0.012	0.37	0.006	0.20	0.024	0.76	1	CC50 (H9C2 mammalian cells; rat, 24 h): 36.36 ± 0.25 µM; EC50 ([2]; Trypanosoma cruzi, TULAHUEN, L929, 96 h, Tulahuen strain in L929, 96 h, read-out: Activity against T. cruzi intracellular forms pEC50 (converted)): 0.0708 µM; EC90 ([2]; Trypanosoma cruzi, Tulahuen strain in L929, 96 h): 3.88 ± 0.45 µM; EC50 ([2]; Tulahuen strain in L929, 96 h, read-out: Activity against T. cruzi intracellular forms EC50): 0.07 ± 0.02 µM; Drug concentration (EC50 in fixed-ratio series) ([3]; proportion BTZ:BZ 5:0): 0.031
O=C(Cn1ccnc1[N+](=O)[O-])NCc1ccccc1 [BZ, benznidazole]	0%	93%	100%	suppressed the peak; also recorded: fully suppressed parasitaemia	100%	only slightly	> 200 µM	> 200 µM	1.73 ± 0.16 µM	1	0.138	0.10	0.219	0.15	0.402	0.28	0.738	0.51	0	EC90 ([2]; Trypanosoma cruzi, TULAHUEN, L929, 96 h): 7.65 ± 1.69 µM; EC50 ([2]; Trypanosoma cruzi, TULAHUEN, L929, 96 h, read-out: Activity against T. cruzi intracellular forms pEC50, Tulahuen strain in L929, 96 h (converted)): 1.74 µM; Drug concentration (EC50 in fixed-ratio series) ([3]; proportion BTZ:BZ 0:5): 1.445
